From patent US6689777B2 (Kenneth S. Warren Institute, priority 2001, dated 2004)
Where a name gives a salt, the structure may show the parent alone. Read-outs that look alike come from different tables or passages of the source.

Assays:
synthetic hemozoin = test: Depolymerization of synthetic hemozoin in vitro; assay type: biochemical; details: 50 mM test compound, acetate buffer pH 5.0, 37° C., 16 hours
Description: This activity is evaluated by incubating a suspension of monomer-free hemozoin at 37° C. with compounds of the present invention for 16 hours. After incubation, hemozoin is separated from any solubilized heme and soluble heme oligomers, the oligomers depolymerized, and the heme present in the supernatants determined.
The synthesis of synthetic hemozoin is carried out as previously described (26). In brief, 60 μmoles of hematin was dissolved in 8 ml of 0.1N NaOH. Following dissolution 49 mmoles of glacial acetic acid was added and the suspension heated at 70° C. overnight. The precipitate was then washed extensively with LPS-free water. In order to remove unreacted heme the precipitate was extracted with 0.1M sodium bicarbonate (pH 9.1) for three hours. The remaining insoluble material was recovered by centrifugation, resuspended in EtOH and transferred to sterile Eppendorf tubes. The material was washed several times in EtOH and finally resuspended in LPS-free double-distilled H2O. The hemozoin preparation was then tested for endotoxin by using the Limulus Amebocyte Lysate test following manufacturer's instructions. Although the preparation of LPS-free hemozoin from native or synthetic sources is not critical for in vitro depolymerization studies, it is critical for studies involving monocytes and animals (see Examples below). Small amounts of LPS can evoke a considerable cytokine response and interfere with interpretation of results. The amount of heme in the final product was determined from a small aliquot using the pyridine-hemochrome method as previously described (26). The preparations are stored at 4° C. until used.
A suspension of monomer-free hemozoin (equivalent to 2 mM free heme) as prepared above was incubated at 37° C. with […] test compound in total volume of 500 μl in acetate buffer (pH: 5.0) in siliconized Eppendorf tubes (Brinkmann Instruments, Westbury, N.Y.) for 16 hours. A control sample containing distilled H2O instead of hemozoin was included. The samples were centrifuged at 14,000 rpm (Eppendorf centrifuge model 5415C, Brinkmann Instruments, Westbury, N.Y.) for 20 min; then 225 μl supernatant was diluted in 175 μl acetate buffer (pH 5.0). Another 225 μl was added to 175 μl 0.5 M NaOH to dissolve possible oligomeric depolymerization products to monomers. Half of the pellet was washed twice for 2.5 hr in 200 μl 2.5% SDS (v/v) in dH2O, the other half was washed twice in 200 μl HCO3^− buffer (pH: 9.1). Both sample supernatants and SDS and HCO3^− buffer supernatants were centrifuged 14,000 rpm for 20 min. and supernatants were added to 10 μl sodium dithionite (200 mg/ml dH2O) to reduce the heme monomers in solution to Fe^2+. All samples were measured in triplicate at 540 nm (Model UV1601 spectrophotometer, Shimradzu Corp, Columbia, Md.). The OD obtained from the blind sample was subtracted from the OD of the hemozoin containing sample.

P. falciparum = P. falciparum growth in culture ([3H]-hypoxanthine incorporation); assay type: cell-based; details: read-out: IC50 vs. P. falc.
Description: To determine the effectiveness of the compounds of the present invention against the erythrocytic stage of the malarial parasite, P. falciparum was grown in human erythrocyte suspensions and maintained at 37° C. in candle jars according to the method of Trager and Jensen (15,16). Parasites were stage-synchronized by incubating mainly ring-stage infected erythrocytes in 5% sorbitol for 10 minutes at room temperature (17). Cultures undergo one growth cycle (2 days) before use. Strains used include the chloroquine sensitive strains D10 and HB3, and the chloroquine resistant isolates Dd2 and FCR.
Parasite growth was determined by measuring incorporation of [^3H]-hypoxanthine into the nucleic acids of the parasite (18). Effects of the compounds of the present invention on parasite growth was determined by measuring the reduction in incorporation of radiolabel as compared to controls. Briefly, assays are performed in 96-well microtiter plates. After 24 h of candle jar incubation at 37° C., [^3H]-hypoxanthine is added to each well. After 18 h the plates are harvested onto glass fiber filter 96 well plates using a cell harvester, dried, and the amount of radioactivity is determined. Drug IC50 values (molar concentration which decreases [^3H]-hypoxanthine incorporation by 50% as compared to drug-free controls) are calculated by extrapolation of the log dose-response curves using curve fitting software (Origin, Microcal Software, Northampton, Mass.).
Parasites were grown in A^+ human erythrocyte suspensions using RPMI-1640 (GIBCO, Gaithersburg, Md.) medium supplemented by 25 mM HEPES (pH 7.35), 0.2% NaHCO3 (23 mM), 0.2% (D)-Glucose and 10% human A^+ plasma and maintained at 37° C. in candle jars according to the method of Trager and Jensen (20,21) Parasites are stage synchronized by incubating mainly ring-stage infected erythrocytes in 5% sorbitol for 10 minutes at room temperature (22). Cultures undergo one growth cycle (2 days) before use. Strains used include the chloroquine sensitive strains D10 and HB3, and the chloroquine resistant isolates Dd2 and FCR.
Parasite growth was determined by measuring incorporation of [^3H]-hypoxanthine into the nucleic acids of the parasite as previously described (23). Effects of the compounds of the present invention on parasite growth was determined by measuring the reduction in incorporation of radiolabel as compared to controls. Briefly, assays were performed in 96-well microtiter plates, each well containing 200 μl of synchronized ring-stage infected erythrocytes in complete media and 50 μl of drug dilution or solvent. The final hematocrit was 1.5% and percent parasitemias range from 2-8%. After 24 h of candle jar incubation at 37° C., 2.5 μCi of [^3H]-hypoxanthine (17 Ci/mmol, Amersham, Arlington Heights, Ill.) in RPMI-1640 media supplemented with 25 mM HEPES (pH 7.35), 0.2% NaHCO3 (23 mM), 0.2% (D)-Glucose is added to each well. After 18 h the plates were harvested onto glass fiber filter 96 well plates using a cell harvester, dried, and 25 μl scintillation acid added per well. The, amount of radioactivity was determined. Drug IC50 values (molar concentration which decreases [^3H]-hypoxanthine incorporation by 50% as compared to drug-free controls) are calculated by extrapolation of the log dose-response curves using curve fitting software (Origin, Microcal Software, Northampton, Mass.). The effects on parasite grown by aromatic guanyllhydrazones, bisguanylhydrazones, naphthothiazolium salts, and other compounds of the instant invention, together with data on hemozoin depolymerization from Example 5, are shown in tables 1 through 4, respectively.

[1] = system: hemozoin ingested by human monocytes; test: Breakdown of macrophage-ingested hemozoin; assay type: cell-based; details: 25 μM compound, FIG. 1
Description: A further evaluation of compounds was performed for activity against pathophysiological effects of hemozoin on the host, using hemozoin-laden macrophages in culture. Freshly-isolated human monocytes were suspended in medium and hemozoin at a concentration reflective of the amount of hemozoin released into circulation during schizogony. In order to maximize contact between hemozoin and monocytes, the cell preparations were centrifuged for 5 sec at 150×g. Ingestion of hemozoin is essentially complete by two hours. Cells were then washed, plated and kept in a humidified incubator. The test compounds of the present invention were added to the wells at concentrations ranging from 0 to 20 mM. Macrophage viability was determined by direct microscopic examination (gross morphology and detachment from the well), trypan blue exclusion method, and LDH release. […] At various times post-treatment (1 hour; 3 hours), cells were lysed, extensively washed and spun down (2500×g) to pellet any cellular components including hemozoin. The lysates were then treated with alkali to dissolve hemozoin to give monomeric heme (35). Monomeric heme was quantified as described above.
Human monocytes were freshly isolated from a buffy coat from a normal donor using Percoll gradients. […] Cells were solubilized at various time points and hemozoin content determined by luminol-elicited chemiluminescence.

[2] = Table 2, aromatic bisguanylhydrazones, growth in culture, [3H]-hypoxanthine incorporation

SMILES	% depol. hemoz. (synthetic hemozoin; Table 2)	IC50 (P. falciparum; [2])	also measured
CC(=NNC(=N)N)c1cccc(C(C)=NNC(=N)N)c1.Cl.Cl [2,2′-(1,3-phenylenediethylidyne)bis(hydrazinecarboximidamide) dihydrochloride]	0.4%	830 nM	
Cl.Cl.N=C(N)NN=Cc1cccc(C=NNC(=N)N)c1 [2,2′-(1,3-phenylenedimethylidyne)bis(hydrazinecarboximidamide) dihydrochloride]	0.1%	1000 nM	
CC(=NNC(=N)N)c1cccc(C(C)=NNC(=N)N)n1.Cl.Cl [2,2′-(2,6-pyridinediyldiethylidyne)bis(hydrazinecarboximidamide) dihydrochloride]	0.0%	2000 nM	
CC(=NNC(=N)N)c1cncc(C(C)=NNC(=N)N)c1.Cl.Cl [2,2′-(3,5-pyridinediyldiethylidyne)bis(hydrazinecarboximidamide) dihydrochloride]	0.3%	400 nM	
CC(CCC1=C(CCC(C)=NNC(=N)N)C(=O)c2ccccc2C1=O)=NNC(=N)N.Cl.Cl [2,2′-[(1,4-dihydro-1,4-dioxo-2,3-naphthalenediyl)bis(1-methyl-3-propanyl-1-ylidene)]bis(hydrazinecarboximidamide)dihydrochloride]			% depol. hemoz. (synthetic hemozoin; Table 4): 0.3%; IC50 (P. falciparum; Table 4, in culture, [3H]-hypoxanthine incorporation): 800 nM
Cc1cc(C=NNC(=N)N)c(O)c(C=NNC(=N)N)c1 [2,2′-[(2-hydroxy-5-methyl-1,3-phenylene)dimethylidyne]bis(hydrazinecarboximidamide)]	2.3%	200 nM	hemozoin content of monocytes after phagocytosis of hemozoin (luminol-elicited chemiluminescence) [1]: significant reduction of hemozoin
COc1c(C=NNC(=N)N)cc(C)cc1C=NNC(=N)N.Cl.Cl [2,2′-[(2-methoxy-5-methyl-1,3-phenylene)dimethylidyne]bis(hydrazinecarboximidamide) dihydrochloride]	2.0%	2300 nM	
CC(=NNC(=N)N)c1cc(C(C)=NNC(=N)N)c(O)cc1O.Cl.Cl [2,2′-[(4,6-dihydroxy-1,3-phenylene)diethylidyne]bis(hydrazinecarboximidamide) dihydrochloride]	2.6%	7000 nM	
CC(=NNC(=N)N)c1ccc(O)c(C(C)=NNC(=N)N)c1.Cl.Cl [2,2′-[(4-hydroxy-1,3-phenylene)diethylidyne]bis(hydrazinecarboximidamide) dihydrochloride]	0.6%	2600 nM	
Cl.Cl.N=C(N)NN=Cc1ccc(O)c(C=NNC(=N)N)c1 [2,2′-[(4-hydroxy-1,3-phenylene)dimethylidyne]bis(hydrazinecarboximidamide) dihydrochloride]	2.2%	5500 nM	
CC(=NNC(=N)N)c1cc(N)cc(C(C)=NNC(=N)N)c1.Cl.Cl [2,2′-[(5-amino-1,3-phenylene)diethylidyne]bis(hydrazinecarboximidamide) dihydrochloride]	0.3%	4000 nM	
CC(=NNC(=N)N)c1cc(O)cc(C(C)=NNC(=N)N)c1.Cl.Cl [2,2′-[(5-hydroxy-1,3-phenylene)diethylidyne]bis(hydrazinecarboximidamide) dihydrochloride]	0.0%	1400 nM	
Cl.N=C(N)NN=Cc1c(O)ccc2ccccc12 [2-[(2-hydroxy-1-naphthyl)methylidene]hydrazinecarboximidamide monohydrochloride]			% depol. hemoz. (synthetic hemozoin; Table 1): 4.3%; IC50 (P. falciparum; Plasmodium falciparum): 1800 nM
Cc1c(O)c2ccccc2c2c1sc(NCCCN(CCO)CCO)[n+]2C [2-[[3-[bis(2-hydroxyethyl)amino]propyl]imino]-1,2-dihydro-1,4-dimethylnaphtho[1,2-d]thiazol-5-ol dihydrochloride]			% depol. hemoz. (synthetic hemozoin; Table 3): 2.9%; IC50 (P. falciparum; Plasmodium falciparum): 200 nM
Cl.N=C(N)NN=Cc1c(N)oc2ccc(Cl)cc2c1=O [2-amino-3-[(aminoiminomethyl)hydrazono]methyl]-6-chloro-4H-1-benzopyran-4-one hydrochloride]			% depol. hemoz. (synthetic hemozoin; Table 1): 0.6%; IC50 (P. falciparum; Table 1, aryl monoguanylhydrazones, growth in culture, [3H]-hypoxanthine incorporation): 3250 nM
Cc1c(O)c2ccccc2c2sc(NCCCN3CCOCC3)nc12 [4-methyl-2-[[3-(4-morpholino)propyl]amino]naphtho[1,2-d]thiazol-5-ol dihydrochloride]			IC50 (P. falciparum; Table 3, naphthothiazolium salts, in culture, [3H]-hypoxanthine incorporation): 600 nM
C/C(=N\NC(=N)N)c1cccc(NC(=O)CCCC(=O)Nc2cccc(/C(C)=N/NC(=N)N)c2)c1 [dihydrochloride]			% depol. hemoz. (synthetic hemozoin; Table 4): 0%; IC50 (P. falciparum; Plasmodium falciparum): 800 nM
